Data from publication PMC8459971, “Evaluation of the hepatotoxicity of the novel GPR40 (FFAR1) agonist CPL207280 in the rat and monkey” (PLoS ONE, 2021).
pIC50: −log10 of the molar value. Several values for one entry are separate records, joined by “and”; a condition that tells them apart may be missing. Equal values may be shown once.

Experiments:
[1] = biological target: T1, OATP1B1 (Homo sapiens, UniProt Q9Y6L6); experiment: Uptake transporter inhibition assay, OATP1B1
T1 sequence (Q9Y6L6 1-691): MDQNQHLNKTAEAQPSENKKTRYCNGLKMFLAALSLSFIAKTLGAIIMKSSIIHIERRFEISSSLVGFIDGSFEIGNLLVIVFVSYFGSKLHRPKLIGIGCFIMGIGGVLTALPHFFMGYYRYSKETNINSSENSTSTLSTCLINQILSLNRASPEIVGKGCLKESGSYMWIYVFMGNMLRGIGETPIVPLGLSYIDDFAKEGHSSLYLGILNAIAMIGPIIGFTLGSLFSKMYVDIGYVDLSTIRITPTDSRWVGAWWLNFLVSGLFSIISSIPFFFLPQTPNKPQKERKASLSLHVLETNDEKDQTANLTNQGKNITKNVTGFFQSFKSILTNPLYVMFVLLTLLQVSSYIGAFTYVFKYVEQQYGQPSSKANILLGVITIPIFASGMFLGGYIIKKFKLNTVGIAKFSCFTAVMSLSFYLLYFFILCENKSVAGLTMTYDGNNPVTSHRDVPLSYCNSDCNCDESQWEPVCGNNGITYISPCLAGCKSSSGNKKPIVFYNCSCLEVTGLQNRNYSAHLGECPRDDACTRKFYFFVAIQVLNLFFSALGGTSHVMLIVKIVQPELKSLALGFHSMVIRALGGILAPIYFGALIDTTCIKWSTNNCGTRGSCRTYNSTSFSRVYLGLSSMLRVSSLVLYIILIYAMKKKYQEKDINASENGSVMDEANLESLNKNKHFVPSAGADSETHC
Protocol: For the uptake transporter inhibition assay, cells were washed twice with 100 μL of the appropriate buffer (HK, pH 7.4) for OATP1B1, followed by HBSS (pH 7.4) for (NTCP, OAT1, OAT2v1, OATP1A2, and OATP1B3). Uptake experiments were carried out at 37 ± 1°C in 50 μL of the respective buffer containing the probe substrate and the compound or solvent. […] After the experiment, cells were washed twice with 100 μL of cold appropriate buffer and lysed with 50 μL of 0.1 M NaOH. Radiolabeled probe substrate transport was determined by measuring an aliquot (35 μL) from each well for liquid scintillation counting.

[2] = Stability in microsomes, mini pig; type: in vitro ADME; settings: for half-life at 3 μM / microsomal CLint at 3 μM: Mini pig microsomes, mean n = 2; for average DEG [%]: minipig microsomes, with cofactors
Protocol: The final incubation volume was 500 μL. Two control compounds (verapamil and donepezil) were included for each microsomal species, along with the appropriate vehicle control. The reactions were terminated by transferring 50 μL of incubate to 100 μL methanol containing an internal standard (metoprolol) at appropriate time points (0, 10, 20, 40, 60, and 120 min for the test compound and 0, 5, 10, 20, 40, and 60 min for the control compounds). The termination plates were centrifuged at 4000 x g at 4°C for 30 min to precipitate the protein. The supernatants were then collected for analysis, and LC-MS/MS was used for detection purposes. The system consisted of an Acquity™ Binary Solvent Manager, Acquity™ 4-position heated column manager, 2777 Ultra High Pressure Autosampler, and a Xevo-TQ MS triple quadrupole mass spectrometer (Waters Ltd., Herts, UK). This process was carried out twice.

[3] = biological target: T2, OAT2v1 (Homo sapiens, UniProt Q9Y694); experiment: Uptake transporter inhibition assay, OAT2v1; type: cell-based; settings: for Accumulation (counts per minute; CPM) HEK293FT-MOCK / Accumulation (counts per minute; CPM) HEK293FT-OAT2v1: OAT2v1
T2 construct: expressed in transfected cells; host or cells: HEK cells
T2 sequence (Q9Y694 1-546 isoform Q9Y694-2): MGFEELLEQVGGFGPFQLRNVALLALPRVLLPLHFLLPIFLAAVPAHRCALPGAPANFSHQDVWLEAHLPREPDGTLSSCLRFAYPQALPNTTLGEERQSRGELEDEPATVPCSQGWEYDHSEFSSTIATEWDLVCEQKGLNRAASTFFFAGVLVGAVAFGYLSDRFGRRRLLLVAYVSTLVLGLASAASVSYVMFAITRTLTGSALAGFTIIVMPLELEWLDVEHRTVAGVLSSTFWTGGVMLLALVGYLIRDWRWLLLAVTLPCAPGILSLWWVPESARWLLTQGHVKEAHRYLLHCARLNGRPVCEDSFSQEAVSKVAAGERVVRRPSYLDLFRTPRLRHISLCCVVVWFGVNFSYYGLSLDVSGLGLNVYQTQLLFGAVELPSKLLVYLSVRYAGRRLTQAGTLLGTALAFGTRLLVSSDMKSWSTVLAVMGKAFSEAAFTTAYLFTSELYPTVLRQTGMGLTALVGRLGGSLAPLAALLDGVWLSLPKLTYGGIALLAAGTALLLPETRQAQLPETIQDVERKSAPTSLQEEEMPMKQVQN
Protocol: For the uptake transporter inhibition assay, cells were washed twice with 100 μL of the appropriate buffer (HK, pH 7.4) for OATP1B1, followed by HBSS (pH 7.4) for (NTCP, OAT1, OAT2v1, OATP1A2, and OATP1B3). Uptake experiments were carried out at 37 ± 1°C in 50 μL of the respective buffer containing the probe substrate and the compound or solvent.

[4] = Viability assay, HepG2 cells, MTT test, 48 h; type: cell-based, human; settings: human, HepG2 cells, sheet Fig1 panel B (HepG2), 48 h, replicates, read-out: viability, normalized to DMSO-treated controls
Protocol: (§1) To study the viability of the liver cells, 5 × 10^3 HepG2 (ATCC®) or human primary cells (ThermoFisher Scientific, USA) were seeded in 100 μL of DMEM media (Gibco; Thermo Fisher Scientific, USA) supplemented with fetal bovine serum (FBS)- in a 96-well plate. […] The experiments were performed in triplicates.

[5] = system: HepG2; experiment: Viability assay, HepG2 cells, MTT test, 48 h; type: cell-based, human; settings: for viability: concentrations up to 10 μM; for viability, normalized to DMSO-treated controls: sheet Fig1 panel B (HepG2), replicates, in % (unit assumed)
Protocol: as §1

| SMILES | pIC50 [1] | half-life at 3 μM [2] | microsomal CLint at 3 μM [2] | average DEG [%] ([2]; 0 min) | average DEG [%] ([2]; 20 min) | average DEG [%] ([2]; 40 min) | average DEG [%] ([2]; 60 min) | Accumulation (counts per minute; CPM) HEK293FT-MOCK ([3]; conc 0.10 µM) | Accumulation (counts per minute; CPM) HEK293FT-OAT2v1 ([3]; conc 0.10 µM) | Accumulation (counts per minute; CPM) HEK293FT-MOCK ([3]; conc 1.00 µM) | Accumulation (counts per minute; CPM) HEK293FT-OAT2v1 ([3]; conc 1.00 µM) | Accumulation (counts per minute; CPM) HEK293FT-MOCK ([3]; conc 3.00 µM) | Accumulation (counts per minute; CPM) HEK293FT-OAT2v1 ([3]; conc 3.00 µM) | Accumulation (counts per minute; CPM) HEK293FT-MOCK ([3]; conc 10.00 µM) | Accumulation (counts per minute; CPM) HEK293FT-OAT2v1 ([3]; conc 10.00 µM) | Accumulation (counts per minute; CPM) HEK293FT-MOCK ([3]; conc 30.00 µM) | Accumulation (counts per minute; CPM) HEK293FT-OAT2v1 ([3]; conc 30.00 µM) | Accumulation (counts per minute; CPM) HEK293FT-MOCK ([3]; conc 100.00 µM) | Accumulation (counts per minute; CPM) HEK293FT-OAT2v1 ([3]; conc 100.00 µM) | viability at 48 h, 25 µM [4] | other results |
| --- | --- | --- | --- | --- | --- | --- | --- | --- | --- | --- | --- | --- | --- | --- | --- | --- | --- | --- | --- | --- | --- |
| CC#C[C@@H](CC(=O)O)c1ccc(OCC(C)=C(C)C)cc1 [CPL207280] | 4.75 | 31 min | 45 µL/min/mg | 100.0% | 67.0% | 40.9% | 26.3% | 34 CPM and 30 CPM | 4632 CPM and 4226 CPM | 35 CPM and 32 CPM | 4766 CPM and 4500 CPM | 30 CPM and 23 CPM | 4371 CPM and 4417 CPM | 27 CPM and 18 CPM | 4079 CPM and 4225 CPM | 32 CPM and 37 CPM | 3998 CPM and 4091 CPM | 28 CPM and 36 CPM | 3763 CPM and 3594 CPM | 104% | fold less inhibitory potency than TAK-875, OATP1B1 [1]: at least 10 fold; fold less inhibitory potency than TAK-875, OAT2v1 [3]: at least 10 fold; Accumulation (counts per minute; CPM) HEK293FT-MOCK ([3]; conc 300.00 µM): 35 CPM and 25 CPM; Accumulation (counts per minute; CPM) HEK293FT-OAT2v1 ([3]; conc 300.00 µM): 2566 CPM and 2951 CPM; viability at 48 h, 3.125 µM ([4]; 3.125 uM): 98.6%; viability at 48 h, 6.25 µM ([4]; 6.25 uM): 113%; viability at 48 h, 50 µM [4]: 109%; reduction of viability ([5]; HepG2, 48 h, 100 μM): 20%; viability ([5]; HepG2, 48 h): Neither compound exhibited altered viability; times better tolerated by hepatocytes than TAK-875 ([5]; hepatocytes (HepG2 and human primary cells)): 10 times; viability, normalized to DMSO-treated controls ([5]; 48 h, 0.78 uM): 122.329 and 97.5265 and 106.534; viability, normalized to DMSO-treated controls ([5]; 48 h, 3.125 uM): 108.127 and 98.0055; viability, normalized to DMSO-treated controls ([5]; 48 h, 6.25 uM): 101.696 and 107.84; viability, normalized to DMSO-treated controls ([5]; 48 h, 25 uM): 115.053 and 98.9684; viability, normalized to DMSO-treated controls ([5]; 48 h, 50 uM): 104.17 and 94.9794; viability, normalized to DMSO-treated controls ([5]; 48 h, 100 uM): 89.5534 and 112.297 and 99.381 |
| Cc1cc(OCCCS(C)(=O)=O)cc(C)c1-c1cccc(COc2ccc3c(c2)OC[C@H]3CC(=O)O)c1 [TAK-875, fasiglifam, reference compound] | 6.31 | 15 min | 91.1 µL/min/mg | 100.0% | 29.4% | 13.1% | 5.83% | 37 CPM and 25 CPM | 4606 CPM and 4412 CPM | 33 CPM | 4344 CPM and 4183 CPM | 34 CPM and 20 CPM | 4050 CPM and 3892 CPM | 25 CPM and 18 CPM | 3715 CPM and 3589 CPM | 47 CPM and 27 CPM | 3019 CPM and 2844 CPM | 24 CPM and 30 CPM | 1943 CPM and 1847 CPM | 67.5% | Accumulation (counts per minute; CPM) HEK293FT-MOCK ([3]; conc 0.30 µM): 30 CPM; Accumulation (counts per minute; CPM) HEK293FT-OAT2v1 ([3]; conc 0.30 µM): 4740 CPM and 4495 CPM; pIC50 ([3]; transformed HEK cells, up to 300μM, n = 2): 4.20; viability at 48 h, 50 µM [4]: 61.2%; effect on growth ([5]; HepG2, 48 h, 100 μM): abolished the growth; viability ([5]; HepG2, 48 h): Neither compound exhibited altered viability; pIC50 ([5]; hepatocytes (HepG2 and human primary cells), 48 h, read-out: IC50 in the viability study): ~4.30; viability, normalized to DMSO-treated controls ([5]; 48 h, 0.78 uM): 126.396; viability, normalized to DMSO-treated controls ([5]; 48 h, 3.125 uM): 63.2509; viability, normalized to DMSO-treated controls ([5]; 48 h, 6.25 uM): 66.4311; viability, normalized to DMSO-treated controls ([5]; 48 h, 25 uM): 47.9859 and 54.8143; viability, normalized to DMSO-treated controls ([5]; 48 h, 50 uM): 48.6926 and 45.8734; viability, normalized to DMSO-treated controls ([5]; 48 h, 100 uM): 25.4386 and 23.9576 and 12.1733 |
